Columns and labels:
[1] = tested on: murine erythroleukemia cells; settings: in vitro; cited from earlier work
Caco-2 cells [2] = assay: Caco-2 cell toxicity / cell death during treatment with differentiating agents
IL-8 mRNA = assay: Inhibition of IL-1β stimulated IL-8 gene expression in Caco-2 cells (Northern blot); format: cell-based
Method: Caco-2 cells (American Type Culture Collection, Rockville, Maryland) were plated at a density of 4×10^4 cells per cm^2 in 10 cm dishes containing Dulbecco's modified Eagle's medium (DMEM) with 10% fetal bovine serum and penicillin/streptomycin as described by Wu et al., J. Biol. Chem., 1992, 267:7863-7870 and Traber et al., Mol. Cell. Biol., 1992, 12:3614-3627. At days 5 (pre-confluent state) and 18 (post-confluent state) the cells were stimulated with complete medium containing 5 ng/ml of IL-1β (R and D Systems, Minneapolis, MN). Total RNA was isolated from these cells 2 and 4 hours after the addition of IL-1 containing medium as well as from a control cell population not treated with IL-1β in accordance with procedures described by Chomczynski, P. and Sacchi, N., Anal. Biochem., 1987, 162:156-159. Ten micrograms of RNA for each sample was electrophoretically separated, transferred to a nylon membrane, and UV crosslinked in accordance with procedures described by Traber et al., Am. J. Physiol., 1992, 262:G123-G130. A cDNA probe for IL-8 was prepared by RT-PCR of total RNA from Caco-2 cells stimulated with IL-1 for 2 hours. Random hexamers were used for reverse transcription of the RNA using reaction conditions similar to those described by Wu et al., Gastroenterology, 1993, 105:837-844. A 277 bp cDNA was amplified from the RT reaction by PCR using the 5′ primer IL-8(+103) and the 3′ primer IL-8(EX4), cloned using a TA-vector (Marchuk et al., Nuc. Acids Res., 1991, 19:1154), and labeled with ^32p using a Random Primers DNA labeling System (Gibco BRL, Gaithersburg, Md.). Hybridization of the Northern blots were performed using conditions as described by Huang et al., Mol. Endo., 1993, 7:1391-1398.

[3] = tested on: alkaline phosphatase mRNA; assay: Induction of alkaline phosphatase mRNA, marker for intestinal epithelial cell differentiation, in Caco-2 cells; format: cell-based
cell proliferation = settings: same dose; cited from earlier work
[4] = orally or intraperitoneally, 26.5 mmole/kg; cited from earlier work
[5] = e.g. six premature infants fed butyrates for 4 days at about 20 mmol/kg/day; cited from earlier work
Caco-2 cells [6] = settings: concentrations of 10-8 and 10-9; cited from earlier work

Compound: CCCC(=O)O [butyric acid]
- erythroid differentiation of erythroleukemia [1]: induced

Compound: phenylacetate
- Caco-2 cell toxicity (Caco-2 cells [2]; any concentration of phenylacetate studied (2.5 to 10 mM)): no evidence of Caco-2 cell toxicity
- IL-8 mRNA expression (IL-8 mRNA; phenylacetate 2.5 to 10 mM, IL-1β 5 ng/ml for 2 hours): Dose dependent inhibition

Compound: CCCC(=O)[O-].[Na+] [sodium butyrate]
- concentration causing significant toxicity and cell death (Caco-2 cells [2]; Caco-2 cells): higher than 2.5 mM
- tolerance by Caco-2 cells / cell death (Caco-2 cells [2]; sodium butyrate 0.1 to 2.5 mM): well-tolerated by Caco-2 cells without any evidence of cell death
- mRNA for alkaline phosphatase ([3]; sodium butyrate 2.5 mM): induction
- concentration of maximal inhibition of IL-8 mRNA expression (IL-8 mRNA; Caco-2 cells, IL-1β 5 ng/ml for 2 hours): 2.5 mM
- steady state levels of IL-8 mRNA (IL-8 mRNA; sodium butyrate 0.1 to 2.5 mM, 3 days, IL-1β 5 ng/ml for 2 hours): dose dependent reduction
- expression of IL-8 mRNA (IL-8 mRNA; sodium butyrate at concentrations higher than 2.5 mM): increased expression

Compound: CCC(=O)[O-].[Na+] [sodium propionate]
- cell toxicity or death (Caco-2 cells [2]; maximum concentration studied, 20 mM): did not lead to cell toxicity or death
- alkaline phosphatase mRNA expression ([3]; sodium propionate 0.1 to 20 mM): induction
- IL-8 mRNA expression (IL-8 mRNA; sodium propionate 0.1 to 20 mM, IL-1β 5 ng/ml for 2 hours): inhibited IL-8 mRNA expression in a dose dependent fashion

Compound: CCCC(=O)OCC(COC(=O)CCC)OC(=O)CCC [tributyrin]
- erythroid differentiation of erythroleukemia [1]: induced
- potency relative to butyric acid on a molar basis [1]: 3- to 4 fold
- effectiveness in inhibiting cell proliferation relative to sodium butyrate (cell proliferation): only as effective as sodium butyrate
- toxicity in mice [4]: No toxicity
- concentration giving identical biological response, relative to sodium butyrate (IL-8 mRNA; in vitro, differentiation and inhibition of IL-8 gene expression): one third
- tolerability in humans [5]: well tolerated

Compound: C=C1/C(=C\C=C2/CCC[C@]3(C)[C@@H]([C@H](C)CCCC(C)(C)O)CC[C@@H]23)C[C@@H](O)C[C@@H]1O [1,25-(OH)2D3, 1,25-dihydroxyvitamin D3]
- Caco-2 cell proliferation (Caco-2 cells [6]): inhibit
- markers of intestinal epithelial differentiation (Caco-2 cells [6]): induce
- steady state IL-8 mRNA expression (IL-8 mRNA; concentrations of 10-8 and 10-9, IL-1β 5 ng/ml for 2 hours): decrease

Compound: CCCC(=O)OCC(O)CO (centres unmarked) [monobutyrin]
- erythroid differentiation of erythroleukemia [1]: induced
- potency relative to butyric acid on a molar basis [1]: much less potent

Source: patent publication US20020137780A1, “Differentiating agents for the treatment of inflammatory intestinal diseases” (priority 1995, published 2002)
